According to patent US6656912B2, “Methods to treat α1-antitrypsin deficiency” (Washington University in St. Louis, priority 2000, dated 2003):
Where a SMILES comes first, the peptide text is derived from it. The star is where a group is joined. Cbz = O=C(OCc1ccccc1)*

Key:
[1] = tested on: α1-ATZ mutant antitrypsin produced by human fibroblast cell line CJZ12B; test: Electrophoretic mobility of immunoprecipitated α1-ATZ from drug-treated, 35S-labeled cells (SDS-PAGE); assay type: cell-based; details: for migration of precipitated α1-ATZ / estimated molecular weight of the protein from treated cultures: 100 μg/ml CST or 3 mM MDNJ; for migration of precipitated α1-ATZ: 1 hour preincubation, 1.5 hours label, vs control medium; for estimated molecular weight of the protein from treated cultures: untreated form 52 kD; for migration of α1-ATZ compared to the 52 kD trimmed form: mannosidase inhibitors, tested as in Example 1
From the text: (§1) The human fibroblast cell line CJZ12B which has been transduced with anthotropic recombinant retroviral particles to result in stable production of α1-ATZ mutant antitrypsin (Gross, V., et al., Biochem. J. (1986) supra) is used to produce α1-ATZ. The α1-ATZ mutant produced is labeled by adding 350-400 μCi TRAN^35S label to the medium.
It has previously been shown that α1-ATZ mutant migrates at 52 kD in electrophoretic studies. It is believed this form is an intermediate with high mannose-type oligosaccharide side chains (Wu, Y., et al., PNAS (1994) supra). The α1-ATZ producing cell line of Preparation A was incubated for 1 hour in control serum-free medium or in serum-free medium supplemented with 100 μg/ml CST or 3 mM MDNJ. The cells were then labeled with TRAN^35S for 1.5 hours maintaining the presence of the drugs. The antitrypsin fraction was immunoprecipitated from the cell lysates, resolved by 10% SDS-PAGE and detected with the Phosphorimager system. […] The estimated molecular weight of the protein from treated cultures is 55 kD.
The effect of the mannosidase inhibitors KIF (mannosidase I), DMJ (mannosidase I and II) and an additional inhibitor, DIM (mannosidase II) on electrophoretic mobility was tested as described in Example 1.

[2] = tested on: α1-ATZ mutant antitrypsin produced by human fibroblast cell line CJZ12B; test: Pulse-chase: disappearance of α1-ATZ from cell lysate and secretion into medium; assay type: cell-based; details: for disappearance of α1-ATZ from the cell lysate vs control / secretion of the 55 kD α1-ATZ into the medium: glucosidase inhibitors, pulse-chase in presence of drug; for molecular weight of intracellular and secreted protein / effect on amount of secreted α1-ATZ / effect on degradation / intracellular retention of α1-ATZ / fraction of α1-ATZ secreted: DMJ 1 mM, KIF 0.3 mM; for effect on amount of secreted α1-ATZ / effect on degradation / intracellular retention of α1-ATZ: DIM 1 mM, vs control; for fraction of α1-ATZ secreted: control 0.11
Description: as §1
The procedure of Example 1 was repeated except that after the incubation with label, the cells producing α1-ATZ were “chased” for various time intervals still in the presence of drug. At these time intervals, extracellular fluid and cell lysates were clarified, immunoprecipitated and analyzed by 8-10% SDS PAGE as previously described. (Wu, Y., et al., PNAS (1994) supra).
The pulse-chase experiments of Example 2 were repeated with the mannosidase inhibitors DMJ (1 mM) KIF (0.3 mM) and DIM (1 mM). In the presence of DMJ or KIF, the intracellular and secreted protein both have molecular weights of 52 kD. […] The half-life for disappearance of α1-ATZ from the lysate in the control is 0.95 hours and the fraction secreted is 0.11. […] (Control values were slightly different in this latter experiment.) There was no effect of DIM on degradation or secretion.

[3] = tested on: neutrophil elastase; test: Complex formation of secreted α1-ATZ with neutrophil elastase; assay type: cell-based; details: medium at 6 hours of chase, KIF (0.3 mM), DMJ (1 nM) or CST (100 μg/ml); for amount of elastase at which complexes start to form / amount of elastase for complete conversion to complexes: 30 minutes at 37°
Description: Both HepG2 cells, secreting wild type antitrypsin, and CJZ12B cells, which secrete the mutant, were subjected to pulse-chase conditions as described, for example, in Example 2. The mutant-secreting cells were treated with KIF (0.3 mM) DMJ (1 nM) or CST (100 μg/ml). The extracellular media from the 6 hours time point of the chase period were harvested and then incubated for 30 minutes at 37° with neutrophil elastase at various concentrations. The reaction mixtures were then immunoprecipitated with anti-antitrypsin and resolved by SDS PAGE.

[4] = tested on: α1-ATZ secreted by CJZ12B cells; test: endoH / PNGaseF digestion of α1-ATZ secreted by treated CJZ12B cells; assay type: cell-based, human; details: product of drug-treated CJZ12B cells
From the text: Wild type α1-AT is secreted from HepG2 cells with a molecular weight of 55 kD. It is resistant to digestion with endoH but is cleaved to a 46 kD polypeptide by PNGaseF.
EndoH is glycolytic only for high mannose […] carbohydrate glycosylation chains; PNGaseF cleaves any carbohydrate and would be expected to degrade the glycosylation side chains of any glycoprotein.
This 55 kD α1-ATZ polypeptide was cleaved to 46 kD by PNGaseF.
The peptide secreted by KIF treated CJZ12B cells was cleaved both by endoH and PNGaseF to a 46 kD product.

[5] = tested on: α1-ATZ; test: Cell-free ER degradation of α1-ATZ (reticulocyte lysate with canine pancreatic microsomes); assay type: biochemical
Description: This system was described by Qu, D., et al., J. Biol. Chem. (1996) 271:22791-22795 cited above. In general, reticulocyte lysate cell free system supplemented with canine pancreatic microsomes was programmed with purified α1-ATZ mRNA over 60 minutes at 30° C. The microsomes were then isolated by centrifugation and incubated in a proteolysis-primed lysate at 37° for various time intervals. Aliquots were taken and the samples resolved on 10% SDS-PAGE gels.
To test the effect of drug, the reaction mixture was pre-incubated for 10 minutes at 30° C. in the absence of CST or in the presence of 100 μg/ml CST. α1-ATZ mRNA and ^35S-labeled methionine were added and translation conducted for 60 minutes at 30° C. in the absence or presence of CST. After co-translational translocation of α1-ATZ into the microsomes, the microsomes were harvested by centrifugation and the pellets suspended in […] of proteolysis-primed lysate with or without CST. The samples were incubated at 37° C. and aliquots analyzed at various time intervals.

[6] = tested on: α1-ATZ complexes with calnexin and GRP78/BiP; test: Co-immunoprecipitation of α1-ATZ with chaperones from microsomes; assay type: biochemical
Description: The procedure was repeated with 100 μg/ml CST present throughout and the microsomes were homogenized under nondenaturing conditions and immunoprecipitated with antibodies to calnexin and to a different chaperone, GRP78/BiP. The 52 kD form in the control was precipitated by anti-calnexin but the complex disappears between 30-45 minutes of the chase period. […] On the other hand, the 55 kD protein characteristic of the sample which includes CST is precipitated by anti-GRP78/BiP. This complex, too, disappears rapidly.

[7] = 100 μg/ml CST present throughout

CN1C[C@H](O)[C@@H](O)[C@H](O)[C@H]1CO [MDNJ, N-methyldeoxynojirimycin]
migration of precipitated α1-ATZ [1]: migrates more slowly
estimated molecular weight of the protein from treated cultures [1]: 55 kD
disappearance of α1-ATZ from the cell lysate vs control [2]: accelerated over control
secretion of the 55 kD α1-ATZ into the medium [2]: no secretion

O=C1N[C@@H]2[C@@H](O)[C@@H](O)[C@H](O)[C@@H](CO)N2C1=O [KIF, kifunensine]
migration of α1-ATZ compared to the 52 kD trimmed form [1]: somewhat slower migration
molecular weight of α1-ATZ-elastase complexes [3]: 70 kD
amount of elastase at which complexes start to form [3]: 0.5 µg
amount of elastase for complete conversion to complexes [3]: 2 µg
molecular weight of intracellular and secreted protein [2]: 52 kD
effect on amount of secreted α1-ATZ [2]: increase
effect on degradation / intracellular retention of α1-ATZ [2]: retained intracellularly for a longer period of time
fraction of α1-ATZ secreted [2]: 0.31
molecular weight of product after PNGaseF cleavage [4]: 46 kD
molecular weight of product(s) after endoH treatment [4]: 46 kD
sensitivity of secreted α1-ATZ to endoH [4]: cleaved

OC[C@@H](O)[C@@H]1NC[C@@H](O)[C@H]1O [DIM]
effect on amount of secreted α1-ATZ [2]: no effect
effect on degradation / intracellular retention of α1-ATZ [2]: no effect

CC(C)C[C@@H](C=O)NC(=O)[C@H](CC(C)C)NC(=O)[C@H](CC(C)C)NC(=O)OCc1ccccc1 [MG132] (Cbz-Leu-Leu-Leu-aldehyde)
effect on alternate degradation pathway of untrimmed α1-ATZ ([5]; CST present): inhibited

O[C@H]1[C@H](O)[C@@H](O)CN2CC[C@H](O)[C@H]12 [CST, castanospermine]
migration of precipitated α1-ATZ [1]: migrates more slowly
estimated molecular weight of the protein from treated cultures [1]: 55 kD
molecular weight of α1-ATZ-elastase complexes [3]: 75 kD
amount of elastase at which complexes start to form [3]: 0.5 µg
amount of elastase for complete conversion to complexes [3]: 2 µg
precipitation of 55 kD α1-ATZ by anti-GRP78/BiP [6, 7]: precipitated
precipitation of α1-ATZ by anti-calnexin [6, 7]: Little if any precipitate
total α1-ATZ co-precipitated with the anti-GRP78/BiP antibody ([6]; CST present, estimated): 5-10%
newly synthesized 55 kD protein secreted into the medium ([2]; 100 μg/ml CST, by 6 hours of chase, untreated control 17%): 31%
time at which 55 kD protein disappears from the cell lysate ([2]; 100 μg/ml CST, chase): 2 to 4 h
disappearance of α1-ATZ from the cell lysate vs control [2]: same rate
secretion of the 55 kD α1-ATZ into the medium [2]: increase
time at which the 55 kD form begins to disappear ([5]; 100 μg/ml CST from pre-incubation on, 37° C., control 15-30 minutes): > 30 min
time at which disappearance is complete ([5]; 100 μg/ml CST from pre-incubation on, 37° C., control 30-45 minutes): 45 to 90 min
disappearance rate of the 52 kD form ([5]; CST added only during the chase period): same disappearance rate as the control
molecular weight of product after PNGaseF cleavage [4]: 46 kD
molecular weight of product(s) after endoH treatment [4]: 46 kD, 48 kD, and 52 kD
sensitivity of secreted α1-ATZ to endoH [4]: partial sensitivity

OC[C@H]1NC[C@@H](O)[C@@H](O)[C@@H]1O [DMJ, deoxymannojirimycin]
migration of α1-ATZ compared to the 52 kD trimmed form [1]: somewhat slower migration
molecular weight of α1-ATZ-elastase complexes [3]: 70 kD
amount of elastase at which complexes start to form [3]: 0.5 µg
amount of elastase for complete conversion to complexes [3]: 2 µg
molecular weight of intracellular and secreted protein [2]: 52 kD
effect on amount of secreted α1-ATZ [2]: increase
effect on degradation / intracellular retention of α1-ATZ [2]: retained intracellularly for a longer period of time
fraction of α1-ATZ secreted [2]: 0.28
